For this assay, the target named is T1, Recombinant human GR (Homo sapiens, UniProt P04150).
T1 construct: purchased Invitrogen P2816
T1 sequence (P04150 1-777): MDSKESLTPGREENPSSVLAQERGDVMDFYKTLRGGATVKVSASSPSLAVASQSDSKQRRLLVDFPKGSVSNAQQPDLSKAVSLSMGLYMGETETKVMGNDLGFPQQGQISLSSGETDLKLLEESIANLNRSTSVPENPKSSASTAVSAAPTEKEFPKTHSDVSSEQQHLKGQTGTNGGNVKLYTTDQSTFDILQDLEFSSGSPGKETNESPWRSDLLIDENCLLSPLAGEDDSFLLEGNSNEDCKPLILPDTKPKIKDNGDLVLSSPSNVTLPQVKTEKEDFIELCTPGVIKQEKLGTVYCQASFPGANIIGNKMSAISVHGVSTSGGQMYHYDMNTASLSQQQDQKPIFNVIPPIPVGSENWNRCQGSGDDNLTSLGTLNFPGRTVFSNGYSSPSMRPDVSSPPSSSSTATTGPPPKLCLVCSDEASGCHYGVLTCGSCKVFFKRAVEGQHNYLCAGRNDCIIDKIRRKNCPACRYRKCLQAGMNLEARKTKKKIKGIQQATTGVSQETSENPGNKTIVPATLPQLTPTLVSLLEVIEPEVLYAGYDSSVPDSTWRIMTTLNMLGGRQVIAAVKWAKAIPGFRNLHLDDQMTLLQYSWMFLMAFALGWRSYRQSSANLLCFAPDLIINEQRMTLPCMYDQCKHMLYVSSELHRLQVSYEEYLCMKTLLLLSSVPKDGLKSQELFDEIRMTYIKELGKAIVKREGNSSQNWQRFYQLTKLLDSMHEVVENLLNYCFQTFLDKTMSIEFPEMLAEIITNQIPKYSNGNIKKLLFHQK
Put plainly: GR competitor assay (receptor competitor assay by fluorescence polarization, Invitrogen kit P2816). The conditions noted are these: 20 μM test compound solution (10 μL per well plus 5 μL 4×GS1 and 5 μL 4×GR); relative to 2 mM dexamethasone positive control; ratios of 100% or more are indicated by 100%; read-out: GR Binding ratio (%). As to the method:
In order to evaluate a binding activity to GR, a receptor competitor assay was carried out by a fluorescence polarization method. In the assay, a GR competitor assay kit (manufactured by Invitrogen, cat No. P2816) was used, and a procedure was carried out according to the protocol attached to the kit. Hereinafter, the specific method will be described.
GR screening buffer: A buffer containing 10 mM potassium phosphate (pH 7.4), 20 mM sodium molybdate (Na2MoO4), 0.1 mM ethylene diamine tetraacetic acid (EDTA), 5 mM dithiothreitol (DTT), 0.1 mM stabilizing peptide and 2% dimethylsulfoxide was prepared.
4×GS1 solution: Fluormone™ GS1, which is a fluorescent glucocorticoid ligand, was diluted with GR screening buffer, whereby a 4 nM solution was prepared.
4×GR solution: Recombinant human GR was diluted with GR screening buffer, whereby a 16 nM solution was prepared.
After a test compound was dissolved in dimethylsulfoxide, the resulting solution was diluted with GR screening buffer, whereby a 20 μM test compound solution was prepared.
1) The test compound solution was added in an amount of 10 μL into each well of a 384-well plate, and then, 4×GS1 solution and 4×GR solution were added in an amount of 5 μL into each well, respectively.
2) The plate was incubated in a dark place at room temperature for 2 to 4 hours.
3) By using a multimode plate reader, Analyst™ HT (manufactured by LJL Biosystems), fluorescence polarization of each well was measured. As the blank, a well containing GR screening buffer in place of the test compound and 4×GS1 solution was used.
4) The same procedure as that in the above 1) to 3) was carried out except that GR screening buffer was used in place of the test compound solution, and the obtained result was taken as the negative control.
5) The same procedure as that in the above 1) to 3) was carried out except that 2 mM dexamethasone was used in place of the test compound solution, and the obtained result was taken as the positive control.
A GR binding ratio (%) was calculated from the following equation. GR binding ratio(%)=100×[1−(fluorescence polarization of test compound solution−fluorescence polarization of positive control solution)/(fluorescence polarization of negative control solution fluorescence polarization of positive control solution)] (Test Results and Discussion)
For orientation: In fluorescence polarisation assays a small probe gives low polarisation when free and higher when bound to something large.

With `COc1cc(OS(=O)(=O)CCC(F)(F)F)ccc1-c1ccc2c(c1COC(=O)c1ccc(C)s1)C(C)=CC(C)(C)N2` [Compound 2-1, 6-[2-Methoxy-4-(3,3,3-trifluoropropylsulfonyloxy)phenyl]-5-(5-methylthiophen-2-ylcarbonyloxymethyl)-2,2,4-trimethyl-1,2-dihydroquinoline], the inhibition at 20 µM (stock) is 97%.
Still for that read-out and setting: as for `CCCS(=O)(=O)Oc1ccc(-c2ccc3c(c2COC(=O)c2ccc(C)s2)C(C)=CC(C)(C)N3)c(OC)c1` [Compound 2-2, 6-(2-Methoxy-4-propylsulfonyloxyphenyl)-5-(5-methylthiophen-2-ylcarbonyloxymethyl)-2,2,4-trimethyl-1,2-dihydroquinoline], the figure is 99%; as for `COc1cc(OS(=O)(=O)CC(C)C)ccc1-c1ccc2c(c1COC(=O)c1ccc(C)s1)C(C)=CC(C)(C)N2` [Compound 2-3], 97%; as for `COc1cc(OS(=O)(=O)C(C)C)ccc1-c1ccc2c(c1COC(=O)c1ccc(C)s1)C(C)=CC(C)(C)N2` [Compound 2-4, 6-(4-Isopropylsulfonyloxy-2-methoxyphenyl)-5-(5-methylthiophen-2-ylcarbonyloxymethyl)-2,2,4-trimethyl-1,2-dihydroquinoline], 100%.
In the case of `COc1cc(OS(=O)(=O)C2CCCC2)ccc1-c1ccc2c(c1COC(=O)c1ccc(C)s1)C(C)=CC(C)(C)N2` [Compound 2-5, 6-(4-Cyclopentylsulfonyloxy-2-methoxyphenyl)-5-(5-methylthiophen-2-ylcarbonyloxymethyl)-2,2,4-trimethyl-1,2-dihydroquinoline], the inhibition at 20 µM (stock) stood at 100%.
Take `COc1cc(OS(C)(=O)=O)ccc1-c1ccc2c(c1COC(=O)c1ccc(C)s1)C(C)=CC(C)(C)N2` [Compound 2-6, 6-(2-Methoxy-4-methylsulfonyloxyphenyl)-5-(5-methylthiophen-2-ylcarbonyloxymethyl)-2,2,4-trimethyl-1,2-dihydroquinoline]: the inhibition at 20 µM (stock) came out at 100%.
On to `CCS(=O)(=O)Oc1ccc(-c2ccc3c(c2COC(=O)c2ccc(C)s2)C(C)=CC(C)(C)N3)c(OC)c1` [Compound 2-7, 6-(4-Ethylsulfonyloxy-2-methoxyphenyl)-5-(5-methylthiophen-2-ylcarbonyloxymethyl)-2,2,4-trimethyl-1,2-dihydroquinoline], for which the inhibition at 20 µM (stock) came out at 100%.
Turning to `CCCCS(=O)(=O)Oc1ccc(-c2ccc3c(c2COC(=O)c2ccc(C)s2)C(C)=CC(C)(C)N3)c(OC)c1` [Compound 2-8, 6-(4-Butylsulfonyloxy-2-methoxyphenyl)-5-(5-methylthiophen-2-ylcarbonyloxymethyl)-2,2,4-trimethyl-1,2-dihydroquinoline], the inhibition at 20 µM (stock) was 100%.
As to `COc1cc(OS(=O)(=O)C2CC2)ccc1-c1ccc2c(c1COC(=O)c1ccc(C)s1)C(C)=CC(C)(C)N2` [Compound 2-9, 6-(4-Cyclopropylsulfonyloxy-2-methoxyphenyl)-5-(5-methylthiophen-2-ylcarbonyloxymethyl)-2,2,4-trimethyl-1,2-dihydroquinoline], the inhibition at 20 µM (stock) was 100%.
For the compound `COC(=O)Oc1ccc(-c2ccc3c(c2COC(=O)c2ccc(C)s2)C(C)=CC(C)(C)N3)c(OC)c1` [Compound 3-1, 6-(2-Methoxy-4-methoxycarbonyloxyphenyl)-5-(5-methylthiophen-2-ylcarbonyloxymethyl)-2,2,4-trimethyl-1,2-dihydroquinoline], the inhibition at 20 µM (stock) was 91%.
As to `COc1cc(OC(=O)Nc2cccnc2)ccc1-c1ccc2c(c1COC(=O)c1ccc(C)s1)C(C)=CC(C)(C)N2` [Compound 4-1, 6-[2-Methoxy-4-(pyridin-3-ylaminocarbonyloxy)phenyl]-5-(5-methylthiophen-2-ylcarbonyloxymethyl)-2,2,4-trim ethyl-1,2-dihydroquinoline], the inhibition at 20 µM turned out to be 100%.
Turning to `COc1cc(OC(=O)N2CCOCC2)ccc1-c1ccc2c(c1COC(=O)c1ccc(C)s1)C(C)=CC(C)(C)N2` [Compound 4-3, 6-[2-Methoxy-4-(morpholin-4-ylcarbonyloxy)phenyl]-5-(5-methylthiophen-2-ylcarbonyloxymethyl)-2,2,4-trimethyl-1,2-dihydroquinoline], the inhibition at 20 µM (stock) came out at 94%.

These data come from patent US8563551B2, “Method for preventing or treating a disease related to the glucocorticoid receptor” (Santen Pharmaceutical Co., Ltd., priority 2006, dated 2013).
